The record followed here is publication PMC8225628, “Bispecific repurposed medicines targeting the viral and immunological arms of COVID-19” (Scientific Reports, 2021).

Values joined by “and” are separate entries in the source; they are usually repeats but may differ in a detail not shown here. Identical values can stand only once. Like-named read-outs stand apart in the source and are kept apart here. *1 amine or outer side, *2 acyl side, *3 side chain or, on linkers, in order; H or OH if unused. Where a SMILES comes first, the peptide text is derived from it. Bridges are numbered along the chain shown (N, C = ends). [ ]: non-standard residue; d: D form. The star is where a group is joined. hTyr(3S-OH,4S-OH,3'-OSO3H) = N[C@H](C(=O)O)[C@H](O)[C@@H](O)c1ccc(O)c(OS(=O)(=O)O)c1; Orn(4R-OH,5R-OH) = O=C([C@H](C[C@@H](O)[C@@H](O)N[*:3])N[*:1])[*:2]; Pro(3S-OH,4S-Me) = C[C@H]1CN[C@H](C(=O)O)[C@H]1O; X1 = CCCCCOc1ccc(-c2cc(-c3ccc(C(=O)*)cc3)no2)cc1; Gln(3R-OH) = NC(=O)C[C@@H](O)[C@H](N)C(=O)O; Hyp = O=C(O)[C@@H]1C[C@@H](O)CN1 Some results are limits rather than exact numbers.

This experiment addresses SARS-CoV-2 M^pro (Severe acute respiratory syndrome coronavirus 2, UniProt P0DTD1). Briefly: biochemical.
Where [1] appears, read: ReFRAME hits, >5e-6 = not potent enough to determine an IC50, read-out: M^pro IC50.

The IC50 is the concentration that inhibits the measured activity by half. As to [(-)-epicatechin], the “M^pro % inhibition at 10 µM” value (ReFRAME hits, 10 µM) was 48%. For the same compound, under setting [1], the IC50 is over 5 µM.

For `[Cl][Hg][Cl]` [mercuric chloride], under “ReFRAME hits, 10 µM”, the “M^pro % inhibition at 10 µM” value is recorded as 89%. Also, under setting [1], the IC50 is over 5 µM.

On to `O=c1cc(-c2ccc(O)c(-c3c(O)cc(O)c4c(=O)cc(-c5ccc(O)cc5)oc34)c2)oc2cc(O)cc(O)c12` [amentoflavone], for which the IC50 (read-out: M^pro IC50) is over 5 µM.

On to `CN1CCCN=C1/C=C/c1cccc(O)c1.O=C(O)c1cc2ccccc2c(Cc2c(O)c(C(=O)O)cc3ccccc23)c1O` [oxantel (pamoate), reference compound], for which, where the note is “ReFRAME hits, 10 µM”, the “M^pro % inhibition at 10 µM” value came to 77%.

Take `Nc1nc(N)nc(Nc2ccc([As]3SC(C(=O)O)C(C(=O)O)S3)cc2)n1` (stereo not drawn) [MELARSONYL]: the “M^pro % inhibition at 10 µM” value is on record as 99%. The IC50 (read-out: M^pro IC50) was 1 µM.

Regarding `CN1CCCN=C1/C=C/c1cccs1` [Pyrantel pamoate, reference compound], the IC50 was 4 µM.

Take `CC(=O)N[C@@H](Cc1ccc(O)cc1)C(=O)N[C@H](C(=O)N[C@@H](C)C(=O)N[C@@H](CC(=O)O)C(=O)COC(=O)c1c(C)cccc1C)C(C)C` [Compound 6, Ac-YVAD-AOM, reference compound]: the “Inhibition of M^pro (in words)” value is “did not substantially inhibit”.

The compound `O=C1OC2(c3ccccc31)c1cc(I)c(O)c(I)c1Oc1c2cc(I)c(O)c1I` [erythrosine] came in with a half-inhibitory concentration (IC50) of 4 µM.

For orientation: inhibition means the share of the control response that was lost under treatment. For the setting “at 100 µM”, `CC(C)[C@H](NC(=O)OCc1ccccc1)C(=O)N[C@@H](C)C(=O)N[C@@H](CC(=O)O)C(=O)COC(=O)c1c(Cl)cccc1Cl` [Compound 5] displayed an inhibition at 100 µM of 50%.

As to teicoplanin [reference compound], the “M^pro % inhibition at 10 µM” value (ReFRAME hits, 10 µM) was 73% and 40%. Moreover, under setting [1], the IC50 was over 5 µM.

For the compound `O=C(N/N=C/c1ccc([N+](=O)[O-])o1)c1cc([N+](=O)[O-])cc([N+](=O)[O-])c1O` [nifursol], where the note is “read-out: M^pro IC50”, the IC50 is over 5 µM.

For `CC(=O)[O][Hg][c]1cc(C(C)(C)CC(C)(C)C)ccc1O` [acetomeroctol], the “M^pro % inhibition at 10 µM” value is on record as 79%. Besides, under “read-out: M^pro IC50”, the IC50 is over 5 µM.

As to (-)-epicatechin gallate, the “M^pro % inhibition at 10 µM” value (ReFRAME hits, 10 µM) came to 46%. Also, the IC50 under setting [1] is over 5 µM.

In the case of `Cc1cc(O)c2c(=O)c3c(O)cc(O)c4c5c(O)cc(O)c6c(=O)c7c(O)cc(C)c8c1c2c(c34)c(c78)c65` [hypericin], the inhibition at 10 µM (read-out: M^pro % inhibition at 10 µM, ReFRAME hits, 10 µM) turned out to be 71%. Further, the IC50 (read-out: M^pro IC50) was found to be 4 µM.

In the case of `CN1CCCN=C1/C=C/c1cccc(O)c1` [oxantel (pamoate), reference compound], the IC50 under setting [1] was 4 µM.

`CCCCCOc1ccc(-c2cc(-c3ccc(C(=O)N[C@H]4C[C@@H](O)[C@@H](O)NC(=O)[C@@H]5[C@@H](O)[C@@H](C)CN5C(=O)[C@H]([C@H](O)CC(N)=O)NC(=O)[C@H]([C@H](O)[C@@H](O)c5ccc(O)c(OS(=O)(=O)[O-])c5)NC(=O)[C@@H]5C[C@@H](O)CN5C(=O)[C@H]([C@@H](C)O)NC4=O)cc3)no2)cc1.[Na+]` [micafungin Sodium, reference compound] (X1-[Orn(4R-OH,5R-OH)]T[Hyp][hTyr(3S-OH,4S-OH,3'-OSO3H)][Gln(3R-OH)][Pro(3S-OH,4S-Me)]; lactam 1-C): the “M^pro % inhibition at 10 µM” value (ReFRAME hits, 10 µM) is 50%. Moreover, the IC50 under setting [1] is over 5 µM.
